Values quoted from earlier work as cited in patent publication US6783772B1, “Pharmaceutical preparations containing alendronate sodium” (priority 2003, dated 2004).

Assays:
bone resorption [1] = conditions: postmenopausal women; 5, 20 and 40 mg daily oral for six weeks
bone resorption [2] = conditions: 40 mg once daily for six months

NCCCC(O)(P(=O)([O-])O)P(=O)(O)O.O.O.O.[Na+] [Alendronate sodium, (4-amino-1-hydroxybutylidene) bisphosphonic acid monosodium salt trihydrate]
biochemical changes (urinary calcium, urinary markers of bone collagen degradation) (bone resorption [1]): dose-dependent inhibition of bone resorption | serum alkaline phosphotase and urinary markers of bone collagen degradation (bone resorption [2]): highly significant decreases | serum calcium phosphate (bone resorption [2]; clinical trials): generally mild, transient, decreases
